Source: patent US10131652B2, “Pyrimidinyloxy benzene derivatives as herbicides” (E. I. DU PONT DE NEMOURS AND COMPANY, priority 2014, dated 2018)

Experiments:
Assay in all cases: Test D pre-/postemergence plant response
Assay type in all cases: in vivo
soybean (Glycine max) = details: Postemergence
Text: (§1) Seeds of plant species selected from blackgrass (Alopecurus myosuroides), Italian ryegrass (Lolium multiflorum), winter wheat (Triticum aestivum), galium (catchweed bedstraw, Galium aparine), corn (Zea mays), large (Lg) crabgrass (Digitaria sanguinalis), giant foxtail (Setaria faberii), johnsongrass (Sorghum halepense), lambsquarters (Chenopodium album), morningglory (Ipomoea coccinea), yellow nutsedge (Cyperus esculentus), pigweed (Amaranthus retroflexus), ragweed (common ragweed, Ambrosia elatior), soybean (Glycine max), bamyardgrass (Echinochloa crus-galli), oilseed rape (Brassica napus), waterhemp (common waterhemp, Amaranthus rudis), and velvetleaf (Abutilon theophrasti) were planted into a blend of loam soil and sand and treated preemergence with test chemicals formulated in a non-phytotoxic solvent mixture which included a surfactant. At the same time, plants selected from these crop and weed species and also kochia (Kochia scoparia), wild oat (Avena fatua), and chickweed (common chickweed, Stellaria media) were planted in pots containing Redi-Earth® planting medium (Scotts Company, 14111 Scottslawn Road, Marysville, Ohio 43041) comprising spaghnum peat moss, vermiculite, wetting agent and starter nutrients and treated with postemergence applications of test chemicals formulated in the same manner. Plants ranged in height from 2 to 18 cm (1- to 4-leaf stage) for postemergence treatments. Treated plants and controls were maintained in a greenhouse for 13 to 15 days, after which time all species were compared to controls and visually evaluated. Plant response ratings, summarized in Table D, are based on a scale of 0 to 100 where 0 is no effect and 100 is complete control. A dash (-) response means no test result.

[1] = tested on: large (Lg) crabgrass (Digitaria sanguinalis); details: Postemergence; for Plant response rating, Crabgrass, Large: scale 0 to 100, 0 no effect, 100 complete control
Text: as §1

[2] = tested on: johnsongrass (Sorghum halepense); details: Postemergence; for Plant response rating, Johnsongrass: scale 0 to 100, 0 no effect, 100 complete control
Text: as §1

[3] = tested on: pigweed (Amaranthus retroflexus); details: Postemergence
Text: as §1

[4] = tested on: blackgrass (Alopecurus myosuroides); details: Postemergence; for Plant response rating, Blackgrass: scale 0 to 100, 0 no effect, 100 complete control
Text: as §1

[5] = tested on: winter wheat (Triticum aestivum); details: Postemergence
Text: as §1

[6] = tested on: yellow nutsedge (Cyperus esculentus); details: Postemergence
Text: as §1

[7] = tested on: morningglory (Ipomoea coccinea); details: Postemergence
Text: as §1

[8] = tested on: velvetleaf (Abutilon theophrasti); details: Postemergence
Text: as §1

corn (Zea mays) = details: Postemergence; for Plant response rating, Corn: scale 0 to 100, 0 no effect, 100 complete control
Text: as §1

[9] = tested on: waterhemp (common waterhemp, Amaranthus rudis); details: Postemergence
Text: as §1

[10] = tested on: barnyardgrass (Echinochloa crus-galli); details: Postemergence; for Plant response rating, Barnyardgrass: scale 0 to 100, 0 no effect, 100 complete control
Text: as §1

[11] = tested on: galium (catchweed bedstraw, Galium aparine); details: Postemergence; for Plant response rating, Galium: scale 0 to 100, 0 no effect, 100 complete control
Text: as §1

[12] = tested on: lambsquarters (Chenopodium album); details: Postemergence
Text: as §1

[13] = tested on: Italian ryegrass (Lolium multiflorum); details: Postemergence
Text: as §1

[14] = tested on: oilseed rape (Brassica napus); details: Postemergence
Text: as §1

[15] = tested on: giant foxtail (Setaria faberii); details: Postemergence; for Plant response rating, Foxtail, Giant: scale 0 to 100, 0 no effect, 100 complete control
Text: as §1

[16] = tested on: ragweed (common ragweed, Ambrosia elatior); details: Postemergence
Text: as §1

[17] = 31 g ai/ha, scale 0 to 100 (0 no effect, 100 complete control)
[18] = 62 g ai/ha, scale 0 to 100, 0 no effect, 100 complete control
[19] = 125 g ai/ha, scale 0 to 100, 0 no effect, 100 complete control

FC(Cl)(Cl)c1cc(-c2ccccc2Oc2ncc(Cl)cn2)no1 [Compound 198]
Plant response rating (scale 0 to 100), Soybean (soybean (Glycine max); 16 g ai/ha): 10 | Soybean plant response rating (soybean (Glycine max); [17]): 25 | Soybean plant response rating (soybean (Glycine max); [18]): 30 | Plant response rating, Soybean (soybean (Glycine max); [19]): 60 | Plant response rating (scale 0 to 100), Crabgrass, Large ([1]; 16 g ai/ha): 10 | Crabgrass, Large plant response rating [1, 17]: 15 | Plant response rating, Crabgrass, Large ([1]; 62 g ai/ha): 20 | Plant response rating, Crabgrass, Large ([1]; 125 g ai/ha): 30 | Plant response rating (scale 0 to 100), Johnsongrass ([2]; 16 g ai/ha): 5 | Johnsongrass plant response rating [2, 17]: 20 | Plant response rating, Johnsongrass ([2]; 62 g ai/ha): 35 | Plant response rating, Johnsongrass ([2]; 125 g ai/ha): 35 | Plant response rating (scale 0 to 100), Pigweed ([3]; 16 g ai/ha): 85 | Pigweed plant response rating [3, 17]: 98 | Pigweed plant response rating [3, 18]: 90 | Plant response rating, Pigweed [3, 19]: 100 | Plant response rating (scale 0 to 100), Blackgrass ([4]; 16 g ai/ha): 5 | Blackgrass plant response rating [4, 17]: 5 | Plant response rating, Blackgrass ([4]; 62 g ai/ha): 10 | Plant response rating, Blackgrass ([4]; 125 g ai/ha): 15 | Plant response rating (scale 0 to 100), Wheat ([5]; 16 g ai/ha): 0 | Wheat plant response rating [5, 17]: 0 | Wheat plant response rating [5, 18]: 5 | Plant response rating, Wheat [5, 19]: 5 | Plant response rating (scale 0 to 100), Nutsedge, Yellow ([6]; 16 g ai/ha): 5 | Nutsedge, Yellow plant response rating [6, 17]: 5 | Nutsedge, Yellow plant response rating [6, 18]: 15 | Plant response rating, Nutsedge, Yellow [6, 19]: 10 | Plant response rating (scale 0 to 100), Morningglory ([7]; 16 g ai/ha): 55 | Morningglory plant response rating [7, 17]: 55 | Morningglory plant response rating [7, 18]: 80 | Plant response rating, Morningglory [7, 19]: 85 | Plant response rating (scale 0 to 100), Velvetleaf ([8]; 16 g ai/ha): 50 | Velvetleaf plant response rating [8, 17]: 45 | Velvetleaf plant response rating [8, 18]: 55 | Plant response rating, Velvetleaf [8, 19]: 55 | Plant response rating (scale 0 to 100), Corn (corn (Zea mays); 16 g ai/ha): 5 | Corn plant response rating (corn (Zea mays); [17]): 10 | Plant response rating, Corn (corn (Zea mays); 62 g ai/ha): 15 | Plant response rating, Corn (corn (Zea mays); 125 g ai/ha): 15 | Plant response rating (scale 0 to 100), Waterhemp ([9]; 16 g ai/ha): 85 | Waterhemp plant response rating [9, 17]: 85 | Waterhemp plant response rating [9, 18]: 95 | Plant response rating, Waterhemp [9, 19]: 98 | Plant response rating (scale 0 to 100), Barnyardgrass ([10]; 16 g ai/ha): 10 | Barnyardgrass plant response rating [10, 17]: 10 | Plant response rating, Barnyardgrass ([10]; 62 g ai/ha): 20 | Plant response rating, Barnyardgrass ([10]; 125 g ai/ha): 35 | Plant response rating (scale 0 to 100), Galium ([11]; 16 g ai/ha): 70 | Galium plant response rating [11, 17]: 75 | Plant response rating, Galium ([11]; 62 g ai/ha): 98 | Plant response rating, Galium ([11]; 125 g ai/ha): 98 | Plant response rating (scale 0 to 100), Lambsquarters ([12]; 16 g ai/ha): 10 | Lambsquarters plant response rating [12, 17]: 55 | Lambsquarters plant response rating [12, 18]: 70 | Plant response rating, Lambsquarters [12, 19]: 75 | Plant response rating (scale 0 to 100), Ryegrass, Italian ([13]; 16 g ai/ha): 0 | Ryegrass, Italian plant response rating [13, 17]: 0 | Ryegrass, Italian plant response rating [13, 18]: 10 | Plant response rating, Ryegrass, Italian [13, 19]: 10 | Plant response rating (scale 0 to 100), Oilseed Rape ([14]; 16 g ai/ha): 30 | Oilseed Rape plant response rating [14, 17]: 50 | Oilseed Rape plant response rating [14, 18]: 60 | Plant response rating, Oilseed Rape [14, 19]: 90 | Plant response rating (scale 0 to 100), Foxtail, Giant ([15]; 16 g ai/ha): 10 | Foxtail, Giant plant response rating [15, 17]: 15 | Plant response rating, Foxtail, Giant ([15]; 62 g ai/ha): 15 | Plant response rating, Foxtail, Giant ([15]; 125 g ai/ha): 25 | Plant response rating (scale 0 to 100), Ragweed ([16]; 16 g ai/ha): 30 | Ragweed plant response rating [16, 17]: 55 | Ragweed plant response rating [16, 18]: 55 | Plant response rating, Ragweed [16, 19]: 60
